Data published in US4499107A, “Method for treating infected renal calculosis” (Dr. L^o. Zambeletti, S.p.A., priority 1981, dated 1985).
Read-outs that look alike come from different tables or passages of the source.

Experiments:
[1] = Teratogenesis in pregnant female rats
[2] = parameters: species or system "Wistar" rats; details: rat, in vivo, po, 200 mg/kg
Procedure: Subacute toxicity. A test lasting 4 weeks has been carried out on the two compounds administered at the dose of 200 mg/kg by oral route to groups of "Wistar" rats, 8 males and 8 females, with daily observation of the behavior, of health status, of feed and water consumption and, twice a week, of the body weight of animals. At the end of 4 weeks the animals have been sacrificed and autopsy and haematological and haematochemical examinations have been performed on them. For all the duration of the test, no anomaly has been noticed in the behavior of both AHA-treated and PHA-treated animals.

[3] = test system: mouse embryonal cell cultures; details: 1,1.10^-4 M; cited from earlier work
Acute toxicity = details: mouse, in vivo
[4] = test system: urease-producing bacteria; details: renal lithiasis sustained by urease-producing bacteria; cited from earlier work
[5] = test system: chinese hamster embryonal cell cultures; details: 1,1.10^-4 M; cited from earlier work
[6] = rabbit, in vivo; for duration of the reduction of the arterial pressure: po, 100 mg/kg
[7] = test system: Salmonella typhimurium (TA 100 and TA 98); details: strains TA 100 and TA 98, 40,000 μg/plate; cited from earlier work
[8] = pregnant female rats, 12th day of pregnancy, cited from earlier work
[9] = test system: mouse embryonal cell cultures; assay: Mutagenesis: morphological changes of the chromosomes in embryonal cell cultures; assay type: cell-based; details: 1.1 10^-4 M, 24-72 hours of incubation
From the text: (§1) Mutagenesis. As far as AHA is concerned, it has been previously reported. […] The propionhydroxamic acid is non mutagenic also in the Ames test.

[10] = test system: chinese hamster embryonal cell cultures; assay: as above; assay type: cell-based; details: 1.1 10^-4 M, 24-72 hours of incubation
From the text: as §1

[11] = rat, in vivo, ip, 300 mg/kg
[12] = test system: urinary infection caused by urease-producing bacteria; assay type: in vivo, patient
From the text: The results shown above, pointing out a globally superimposable behavior of AHA and PHA, with the exclusion of the fundamental aspects of the mutagenesis and of the theratogenesis, which are absent in propionhydroxamic acid, prompted to test this latter compound on some clinical cases, hereunder reported. (1) Urinary infection caused by urease-producing bacteria; (2) relapsing renal calculosis.

[13] = test system: Salmonella typhimurium (TA 100 and TA 98); assay: Ames test; assay type: cell-based
Procedure: In the Belgian Pat. No. 878,836, Jan. 16, 1980, it is moreover reported that AHA is mutagenic according to the Ames test on two strains of Salmonella typhimurium (TA 100 and TA 98), at the dose of 40,000 μg/plate.
as §1

[14] = Case 1, 500 mg/die combined with antibiotic therapy
[15] = Case 2, 375 mg/die combined with antibiotic therapy
[16] = Case 4, 500 mg/die with antibiotic therapy, after 3 months
[17] = Case 5, 500 mg/die with antibiotic therapy

CC(=O)NO [AHA, acetohydroxamic acid, reference compound]
dead fetuses (comparison value) ([1]; dose for AHA not stated at this place): 50%
autoptical examination of the main organs (thymus, testes, heart, liver) [2]: hypotrophy of the main organs
behavior of animals [2]: no anomaly
feed consumption [2]: decrease
haematochemical parameters, AHA versus PHA [2]: No remarkable differences
macroscopic lesion of the main organs [2]: no macroscopic lesion
morphological changes of the chromosomes provoked by damages at DNA [3]: causes morphological changes of the chromosomes
LD50 (Acute toxicity; po): 2740 mg/kg
drug's action on urinary ammonium and urinary pH [4]: decrease of urinary ammonium and urinary pH
morphological changes of the chromosomes provoked by damages at DNA [5]: causes morphological changes of the chromosomes
reduction of the mean arterial pressure ([6]; 50 mg/kg): 15%
time after administration at which the reduction of mean arterial pressure is still present ([6]; 50 mg/kg): ≥ 120 min
duration of the reduction of the arterial pressure [6]: > 120 min
mutagenicity in the Ames test [7]: mutagenic
fetuses with deformations ([8]; i.p. 750 mg/kg una tantum): 50%
deaths of fetuses ([8]; i.p. 1000 mg/kg una tantum): 55%
deformations in the survived fetuses ([8]; i.p. 1000 mg/kg una tantum): 100%
reabsorption of fetuses ([8]; i.p. 1500 mg/kg una tantum): 100%

CCC(=O)NO [PHA, propionhydroxamic acid]
dead fetuses ([1]; intraperitoneal, once on the 13th day of pregnancy, 300 mg/kg): 55%
autoptical examination of the main organs (thymus, testes, heart, liver) [2]: hypotrophy of the main organs
behavior of animals [2]: no anomaly
feed consumption [2]: decrease
haematochemical parameters, AHA versus PHA [2]: No remarkable differences
macroscopic lesion of the main organs [2]: no macroscopic lesion
LD50 (Acute toxicity; oral route, confidence limits in brackets): 2370 mg/kg
morphologic change of the chromosomes provoked by damages at DNA [9]: did not induce
morphologic change of the chromosomes provoked by damages at DNA [10]: did not induce
morphological development of the survived fetuses [11]: perfectly normal development
urinary ammonium values [12, 14]: normalization
urinary pH [12, 14]: normalization
urinary cultures ([12]; Case 1, 500 mg/die combined with antibiotic therapy, Proteus mirabilis): sterilization of urinary cultures
effect of temporary interruption of the drug ([12]; Case 2, 375 mg/die): reapparence of urease producing bacteria (Klebsiella)
urinary ammonium values [12, 15]: decrease of urinary ammonium values
urinary infection [12, 15]: resolution of urinary infection
urinary acidification ([12]; Case 2, 375 mg/die combined with antibiotic therapy, Proteus mirabilis and Klebsiella): sufficient urinary acidification
volumetric increase of the lithiasic relapse ([12]; Case 2, 375 mg/die, during 5 months' therapy): not observed
lithiasic relapse at the left kidney ([12]; Case 3): Absence of lithiasic relapse
crystalluria ([12]; Case 3, combination): non pathologic crystalluria
urinary ammonium ([12]; Case 3, combination, Proteus mirabilis): normalization
lithiasic relapse at the left kidney ([12]; Case 4, 500 mg/die): no lithiasic relapse
crystalluria [12, 16]: normalization
urinary pH [12, 16]: normalization
ammonium values ([12]; Case 4, 500 mg/die with antibiotic therapy, after 3 months, Proteus mirabilis and Klebsiella): normalization
growth of the already present lithiasic formation [12, 17]: stopping of the growth
onset of further relapses [12, 17]: lacking onset of further relapses
urinary infection [12, 17]: resolution of urinary infection
urinary pH [12, 17]: normalization
urinary ammonium ([12]; Case 5, 500 mg/die with antibiotic therapy, Proteus mirabilis): normalization
blood pressure ([6]; 50 mg/kg): does not change
heart rate ([6]; 50 mg/kg): does not change
duration of the reduction of the arterial pressure [6]: 10 to 30 min
mutagenicity in the Ames test [13]: non mutagenic
